± gives the uncertainty stated by the source.
Assay: xn = mol fraction of the nth substance listed

## CCCCCCCCCCCC + CCCCCC
303.15 K, 100 kPa, x2 = 0.899
  viscosity: 0.352 ± 0.004 mPa·s
303.57 K, 101.3 kPa, x1 = 0.7481
  viscosity: 0.9319 ± 0.011 mPa·s
303.58 K, 101.3 kPa, x1 = 0.2499
  viscosity: 0.4512 ± 0.0056 mPa·s
308.12 K, 101.3 kPa, x1 = 0.7481
  viscosity: 0.8716 ± 0.011 mPa·s
308.15 K, 100 kPa, x2 = 0.0986
  viscosity: 1.013 ± 0.013 mPa·s
308.15 K, 100 kPa, x2 = 0.2024
  viscosity: 0.902 ± 0.011 mPa·s
308.15 K, 100 kPa, x2 = 0.2991
  viscosity: 0.805 ± 0.01 mPa·s
308.15 K, 100 kPa, x2 = 0.4003
  viscosity: 0.702 ± 0.009 mPa·s
308.15 K, 100 kPa, x2 = 0.5036
  viscosity: 0.613 ± 0.008 mPa·s
308.15 K, 100 kPa, x2 = 0.6025
  viscosity: 0.529 ± 0.007 mPa·s
308.15 K, 100 kPa, x2 = 0.7016
  viscosity: 0.453 ± 0.006 mPa·s
308.15 K, 100 kPa, x2 = 0.8003
  viscosity: 0.388 ± 0.005 mPa·s
308.15 K, 100 kPa, x2 = 0.899
  viscosity: 0.334 ± 0.004 mPa·s
308.15 K, 101.33 kPa, x1 = 0.0232
  viscosity: 0.2875 ± 0.0034 mPa·s
308.15 K, 101.33 kPa, x1 = 0.0783
  viscosity: 0.3133 ± 0.0036 mPa·s
308.15 K, 101.33 kPa, x1 = 0.1615
  viscosity: 0.3656 ± 0.0041 mPa·s
308.15 K, 101.33 kPa, x1 = 0.1736
  viscosity: 0.3742 ± 0.0042 mPa·s
308.15 K, 101.33 kPa, x1 = 0.3209
  viscosity: 0.4799 ± 0.0051 mPa·s
308.15 K, 101.33 kPa, x1 = 0.411
  viscosity: 0.5504 ± 0.0057 mPa·s
308.15 K, 101.33 kPa, x1 = 0.6005
  viscosity: 0.7191 ± 0.0073 mPa·s
308.15 K, 101.33 kPa, x1 = 0.8557
  viscosity: 0.9709 ± 0.0097 mPa·s
308.15 K, 101.33 kPa, x1 = 0.9271
  viscosity: 1.054 ± 0.01 mPa·s
308.18 K, 101.3 kPa, x1 = 0.4998
  viscosity: 0.6313 ± 0.0077 mPa·s
308.23 K, 101.3 kPa, x1 = 0.2499
  viscosity: 0.4292 ± 0.0053 mPa·s
311.42 K, 101.3 kPa, x1 = 0.2499
  viscosity: 0.4144 ± 0.0051 mPa·s
313.15 K, 100 kPa, x2 = 0.0986
  viscosity: 0.941 ± 0.012 mPa·s
313.15 K, 100 kPa, x2 = 0.2
  viscosity: 0.87 ± 0.01 mPa·s
313.15 K, 100 kPa, x2 = 0.2024
  viscosity: 0.841 ± 0.01 mPa·s
313.15 K, 100 kPa, x2 = 0.2991
  viscosity: 0.753 ± 0.009 mPa·s
313.15 K, 100 kPa, x2 = 0.4
  viscosity: 0.69 ± 0.01 mPa·s
313.15 K, 100 kPa, x2 = 0.4003
  viscosity: 0.658 ± 0.008 mPa·s
313.15 K, 100 kPa, x2 = 0.5036
  viscosity: 0.578 ± 0.007 mPa·s
313.15 K, 100 kPa, x2 = 0.6
  viscosity: 0.53 ± 0.01 mPa·s
313.15 K, 100 kPa, x2 = 0.6025
  viscosity: 0.5 ± 0.006 mPa·s
313.15 K, 100 kPa, x2 = 0.7016
  viscosity: 0.43 ± 0.005 mPa·s
313.15 K, 100 kPa, x2 = 0.8
  viscosity: 0.38 ± 0.01 mPa·s
313.15 K, 100 kPa, x2 = 0.8003
  viscosity: 0.37 ± 0.005 mPa·s
313.15 K, 100 kPa, x2 = 0.899
  viscosity: 0.317 ± 0.004 mPa·s
318.15 K, 100 kPa, x2 = 0.0986
  viscosity: 0.876 ± 0.011 mPa·s
318.15 K, 100 kPa, x2 = 0.2024
  viscosity: 0.786 ± 0.01 mPa·s
318.15 K, 100 kPa, x2 = 0.2991
  viscosity: 0.706 ± 0.009 mPa·s
318.15 K, 100 kPa, x2 = 0.4003
  viscosity: 0.619 ± 0.008 mPa·s
318.15 K, 100 kPa, x2 = 0.5036
  viscosity: 0.545 ± 0.007 mPa·s
318.15 K, 100 kPa, x2 = 0.6025
  viscosity: 0.474 ± 0.006 mPa·s
318.15 K, 100 kPa, x2 = 0.7016
  viscosity: 0.409 ± 0.005 mPa·s
318.15 K, 100 kPa, x2 = 0.8003
  viscosity: 0.359 ± 0.005 mPa·s
318.15 K, 100 kPa, x2 = 0.899
  viscosity: 0.302 ± 0.004 mPa·s
322.68 K, 101.3 kPa, x1 = 0.4998
  viscosity: 0.5301 ± 0.0065 mPa·s
323.08 K, 101.3 kPa, x1 = 0.2499
  viscosity: 0.3672 ± 0.0045 mPa·s
323.15 K, 100 kPa, x2 = 0.0986
  viscosity: 0.819 ± 0.01 mPa·s
323.15 K, 100 kPa, x2 = 0.2024
  viscosity: 0.736 ± 0.009 mPa·s
323.15 K, 100 kPa, x2 = 0.2991
  viscosity: 0.663 ± 0.008 mPa·s
323.15 K, 100 kPa, x2 = 0.4003
  viscosity: 0.584 ± 0.007 mPa·s
323.15 K, 100 kPa, x2 = 0.5036
  viscosity: 0.515 ± 0.006 mPa·s
323.15 K, 100 kPa, x2 = 0.6025
  viscosity: 0.45 ± 0.006 mPa·s
323.15 K, 100 kPa, x2 = 0.7016
  viscosity: 0.389 ± 0.005 mPa·s
323.15 K, 100 kPa, x2 = 0.8003
  viscosity: 0.342 ± 0.004 mPa·s
323.15 K, 100 kPa, x2 = 0.899
  viscosity: 0.287 ± 0.004 mPa·s

Reference: the CheMixHub viscosity set
